PubChem BioAssay AID330 (DTP/NCI, 2004)
“And” between values parts separate entries of the source, which are not always exact repeats. Identical values can stand only once. Toxic doses and inconclusive results are not listed. How the source made its calls: active means survival T/C of 150% or more; inactive means T/C below 125% in these data.

Test system: P388 leukemia ip, CD2F1 mice, survival T/C
Assay: NCI In Vivo Anticancer Drug Screen. Data for tumor model P388 Leukemia (intraperitoneal) in CD2F1 (CDF1) mice
Conditions: endpoint: median survival time, higher = longer survival
How it was run: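 Mice carrying the transplanted tumor received test compound or vehicle. Survival was recorded in each group, and the value is the treated-group measurement divided by that of the vehicle-treated control group.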

[1] = dose: 200.0 mg/kg/injection, schedule: Q01DX009 (ip), vehicle: saline with Tween-80
[2] = dose: 50.0 mg/kg/injection, schedule: Q01DX005 (ip), vehicle: Klucel (hydroxypropylcellulose) (HPC)
[3] = dose: 100.0 mg/kg/injection, schedule: Q01DX005 (ip), vehicle: Klucel (hydroxypropylcellulose) (HPC)
[4] = dose: 200.0 mg/kg/injection, schedule: Q01DX005 (ip), vehicle: Klucel (hydroxypropylcellulose) (HPC)
[5] = dose: 12.5 mg/kg/injection, schedule: Q01DX009 (ip), vehicle: distilled water + Tween-80
[6] = dose: 25.0 mg/kg/injection, schedule: Q01DX009 (ip), vehicle: distilled water + Tween-80
[7] = dose: 50.0 mg/kg/injection, schedule: Q01DX009 (ip), vehicle: distilled water + Tween-80
[8] = dose: 100.0 mg/kg/injection, schedule: Q01DX009 (ip), vehicle: distilled water + Tween-80
[9] = dose: 50.0 mg/kg/injection, schedule: Q01DX009 (ip), vehicle: other
[10] = dose: 100.0 mg/kg/injection, schedule: Q01DX009 (ip), vehicle: other
[11] = dose: 50.0 mg/kg/injection, schedule: Q01DX009 (ip), vehicle: saline with Tween-80
[12] = dose: 50.0 mg/kg/injection, schedule: Q01DX009 (ip), vehicle: saline
[13] = dose: 100.0 mg/kg/injection, schedule: Q01DX009 (ip), vehicle: saline

Measured: T/C

Cc1cc(N(CCCl)CCCl)ccc1C=Nc1ccc(F)cc1
inactive: dose: 100.0 mg/kg/injection, schedule: Q04DX003 (ip), vehicle: saline with Tween-80 104 % of control | dose: 264.0 mg/kg/injection, schedule: Q04DX003 (ip), vehicle: saline with Tween-80 109 % of control
active: [1] 155 % of control | dose: 400.0 mg/kg/injection, schedule: Q01DX009 (ip), vehicle: saline with Tween-80 165 % of control | dose: 400.0 mg/kg/injection, schedule: Q04DX003 (ip), vehicle: saline with Tween-80 150 % of control | dose: 600.0 mg/kg/injection, schedule: Q04DX003 (ip), vehicle: saline with Tween-80 168 % of control

[Cl][Pt+2][Cl].[NH-]CC([NH-])c1ccccc1 (stereo not given)
active: dose: 6.25 mg/kg/injection, schedule: Q04DX002 (ip), vehicle: saline with Tween-80 179 % of control | dose: 12.5 mg/kg/injection, schedule: Q01DX001 (ip), vehicle: Klucel (hydroxypropylcellulose) (HPC) 152 % of control | dose: 12.5 mg/kg/injection, schedule: Q04DX002 (ip), vehicle: saline with Tween-80 194 % of control | dose: 25.0 mg/kg/injection, schedule: Q01DX001 (ip), vehicle: Klucel (hydroxypropylcellulose) (HPC) 179 % of control | dose: 25.0 mg/kg/injection, schedule: Q04DX002 (ip), vehicle: saline with Tween-80 220 % of control | dose: 50.0 mg/kg/injection, schedule: Q01DX001 (ip), vehicle: Klucel (hydroxypropylcellulose) (HPC) 157 % of control and 163 % of control

CCCNS(=O)(=O)c1ccccc1C(=O)NC1CCCCC1
inactive: [2] 103 % of control | [3] 93 % of control | [4] 94 % of control

[N-]=[N+]=Nc1nn2cnnc2c2[nH]c3ccccc3c12
inactive: dose: 12.5 mg/kg/injection, schedule: Q01DX005 (ip), vehicle: Klucel (hydroxypropylcellulose) (HPC) 104 % of control | dose: 25.0 mg/kg/injection, schedule: Q01DX005 (ip), vehicle: Klucel (hydroxypropylcellulose) (HPC) 108 % of control | [2] 100 % of control and 101 % of control | [3] 96 % of control | [4] 99 % of control

CCC[As](CCC)SC1CCC2(C)C(=CCC3C4CCC(=O)C4(C)CCC32)C1 (stereo not given)
inactive: [5] 98 % of control | [6] 98 % of control | [7] 95 % of control | [8] 92 % of control | dose: 200.0 mg/kg/injection, schedule: Q01DX009 (ip), vehicle: distilled water + Tween-80 98 % of control

C/C(=N/NC(=O)CCl)c1ccccc1
inactive: dose: 75.0 mg/kg/injection, schedule: Q01DX009 (ip), vehicle: saline with Tween-80 108 % of control

CCOC(=O)C1CCCC(=O)C1Cc1cccc(OC)c1 (stereo not given)
inactive: [9] 100 % of control | [10] 106 % of control | dose: 200.0 mg/kg/injection, schedule: Q01DX009 (ip), vehicle: other 100 % of control

CSc1ccccc1P(c1ccccc1)c1ccccc1
inactive: dose: 50.0 mg/kg/injection, schedule: Q01DX009 (ip), vehicle: Klucel (hydroxypropylcellulose) (HPC) 109 % of control | dose: 100.0 mg/kg/injection, schedule: Q01DX009 (ip), vehicle: Klucel (hydroxypropylcellulose) (HPC) 115 % of control | dose: 200.0 mg/kg/injection, schedule: Q01DX009 (ip), vehicle: Klucel (hydroxypropylcellulose) (HPC) 105 % of control

COc1cc2cc[n+](C)c(C)c2cc1OC
inactive: [5] 111 % of control | [6] 111 % of control and 120 % of control | [7] 121 % of control and 124 % of control | [8] 100 % of control and 118 % of control

C[Si](Cl)(CCl)CCl
inactive: [11] 118 % of control | dose: 100.0 mg/kg/injection, schedule: Q01DX009 (ip), vehicle: saline with Tween-80 116 % of control | [1] 118 % of control

CC(C)(CCC(=O)O)C(=O)O
inactive: dose: 50.0 mg/kg/injection, schedule: Q01DX009 (ip), vehicle: saline sonified 91 % of control | dose: 200.0 mg/kg/injection, schedule: Q01DX009 (ip), vehicle: saline sonified 87 % of control

S=c1nn[nH]n1-c1ccccc1.[Cd]
inactive: dose: 3.13 mg/kg/injection, schedule: Q01DX009 (ip), vehicle: saline with Tween-80 98 % of control | dose: 6.25 mg/kg/injection, schedule: Q01DX009 (ip), vehicle: saline with Tween-80 94 % of control

CN(C)c1ccc(C2c3cc4c(cc3OC3(N5CCCC5)CCCCC23)OCO4)cc1 (stereo not given)
inactive: dose: 60.0 mg/kg/injection, schedule: Q01DX005 (ip), vehicle: Klucel (hydroxypropylcellulose) (HPC) 95 % of control | dose: 120.0 mg/kg/injection, schedule: Q01DX005 (ip), vehicle: Klucel (hydroxypropylcellulose) (HPC) 97 % of control | dose: 240.0 mg/kg/injection, schedule: Q01DX005 (ip), vehicle: Klucel (hydroxypropylcellulose) (HPC) 89 % of control

Cc1c(COC(=O)NC(C)C)c(COC(=O)NC(C)C)c2n1CCS2(=O)=O
inactive: dose: 25.0 mg/kg/injection, schedule: Q01DX005 (ip), vehicle: saline with Tween-80 92 % of control | dose: 50.0 mg/kg/injection, schedule: Q01DX005 (ip), vehicle: saline with Tween-80 100 % of control | dose: 100.0 mg/kg/injection, schedule: Q01DX005 (ip), vehicle: saline with Tween-80 92 % of control | dose: 200.0 mg/kg/injection, schedule: Q01DX005 (ip), vehicle: saline with Tween-80 86 % of control and 91 % of control | dose: 400.0 mg/kg/injection, schedule: Q01DX005 (ip), vehicle: saline with Tween-80 91 % of control

CC1(C)C2CCC(C2)C1C(=O)CCN1CCc2ccccc2C1 (stereo not given)
inactive: dose: 12.5 mg/kg/injection, schedule: Q01DX009 (ip), vehicle: saline with Tween-80 106 % of control | dose: 25.0 mg/kg/injection, schedule: Q01DX009 (ip), vehicle: saline with Tween-80 107 % of control | [11] 107 % of control

c1ccc2c(c1)CCCN2c1nc(N2CCCC2)nc(N2CCOCC2)n1
inactive: [12] 99 % of control | [13] 89 % of control | dose: 200.0 mg/kg/injection, schedule: Q01DX009 (ip), vehicle: saline 92 % of control

CN(C)CCCn1c2ccccc2c2cnccc21
inactive: dose: 25.0 mg/kg/injection, schedule: Q01DX009 (ip), vehicle: saline 100 % of control | dose: 25.0 mg/kg/injection, schedule: Q04DX003 (ip), vehicle: saline 100 % of control | [12] 100 % of control | dose: 50.0 mg/kg/injection, schedule: Q04DX003 (ip), vehicle: saline 95 % of control | [13] 109 % of control | dose: 100.0 mg/kg/injection, schedule: Q04DX003 (ip), vehicle: saline 95 % of control

O=C(NC(=S)c1cccs1)NS(=O)(=O)c1ccc(Cl)cc1
inactive: dose: 25.0 mg/kg/injection, schedule: Q01DX001 (ip), vehicle: saline with Tween-80 98 % of control | dose: 50.0 mg/kg/injection, schedule: Q01DX001 (ip), vehicle: saline with Tween-80 98 % of control | dose: 100.0 mg/kg/injection, schedule: Q01DX001 (ip), vehicle: saline with Tween-80 98 % of control

CCCN(CCC)C1=CC(=O)C(N(CCC)CCC)=CC1=O
inactive: [2] 117 % of control | [3] 89 % of control

CCC1(O)CC(OC2CC(O)C(O)C(C)O2)c2c(O)c3c(c(O)c2C1C(=O)OC)C(=O)c1cccc(O)c1C3=O (stereo not given)
inactive: dose: 1.56 mg/kg/injection, schedule: Q04DX003 (ip), vehicle: water 104 % of control | dose: 3.13 mg/kg/injection, schedule: Q04DX003 (ip), vehicle: water 103 % of control | dose: 6.25 mg/kg/injection, schedule: Q04DX003 (ip), vehicle: water 103 % of control | dose: 12.5 mg/kg/injection, schedule: Q04DX003 (ip), vehicle: water 109 % of control | dose: 25.0 mg/kg/injection, schedule: Q04DX003 (ip), vehicle: water 109 % of control | dose: 50.0 mg/kg/injection, schedule: Q04DX003 (ip), vehicle: water 104 % of control | dose: 100.0 mg/kg/injection, schedule: Q04DX003 (ip), vehicle: water 119 % of control | dose: 200.0 mg/kg/injection, schedule: Q04DX003 (ip), vehicle: water 109 % of control

CCN(CC)CCCC(C)Nc1ccc2cc(OC)ccc2n1 (stereo not given)
inactive: dose: 6.25 mg/kg/injection, schedule: Q01DX005 (ip), vehicle: saline 103 % of control | dose: 12.5 mg/kg/injection, schedule: Q01DX005 (ip), vehicle: saline 103 % of control

C=CCc1ccc(O)c(OC)c1
inactive: [9] 101 % of control | [10] 107 % of control
